Laboratory results taken from US20250388591A1 (CSPC ZHONGQI PHARMACEUTICAL TECHNOLOGY (SHIJIAZHUANG) CO., …, priority 2022, published 2025).

Experiments:
MAT2A = molecular target: T1, MAT2A (Homo sapiens, UniProt P31153); test: MAT2A enzymatic assay (MAT2A Inhibitor Enzymatic Screening Kit); assay type: biochemical; conditions: MAT2A enzyme, colorimetric detection at 630 nm; read-out: Inhibitory activity against Enzyme (IC50: nM)
T1 construct: purchased BPS Bioscience
Procedure: The inhibitory effect of the test compounds on the enzymatic activity of MAT2A was determined using MAT2A Inhibitor Enzymatic Screening Kit (BPS Bioscience).
1) Test compounds were dissolved in DMSO and mixed well until the test compounds were completely dissolved. All compounds were diluted with DMSO to a starting concentration of 2 mM, and diluted at a 3-fold ratio to a total of 10 concentration gradients. Duplicate wells were set. The compounds were added to the reaction system at a ratio of 1:100 (20 μM of the maximum final concentration) during detection. 100× positive control (1 mM AGI-24512) and 100× negative control (100% DMSO) were prepared.
2) 200 nL of each of the diluted compounds were transferred to each well of the reaction plate (Corning 3702) using an Echo 550 pipetting system, and the reaction plate was sealed with a sealing film, and centrifuged at 1000 g for 1 minute. The final concentration of DMSO was 1%.
3) Preparation of 1×MAT2A enzyme reaction buffer: 1× volume of 5×MAT2A enzyme reaction buffer was mixed well with 4× volumes of water.
4) 2×MAT2A enzyme solution was prepared with 1×MAT2A enzyme reaction buffer.
5) A 10 μL of 2×MAT2A enzyme solution was added to each well of the 384-reaction plate (Corning 3702), and the plate was sealed with a sealing film.
6) The plate was centrifuged at 1000 g for 60 seconds and incubated at room temperature for 30 minutes.
7) A mixture of 2×L-Methionine and ATP was prepared with 1×MAT2A enzyme reaction buffer.
8) 10 μL of the mixture of 2×L-Methionine and ATP was added to each well of the 384-reaction plate (Corning 3702), and the plate was sealed with a sealing film. The total reaction system was 20 μL.
9) The plate was centrifuged at 1000 g for 60 seconds and incubated at room temperature for 60 minutes.
10) The assay buffer Colorimetric Detection Rebgent was prepared.
11) 20 μL of the assay buffer was added to each well. The plate was centrifuged at 1000 g for 30 seconds and reacted at room temperature for 15 minutes.
12) Fluorescence signal at 630 nm was detected by a multifunctional microplate reader (PerkinElmer, Nivo).

HCT116-MTAP−/− cells = test: Cell proliferation inhibition, HCT116 MTAP-/- (Cell Titer Glo, 5 days); assay type: cell-based; conditions: Homo sapiens, HCT-116, 120 h, 5 days treatment, read-out: HCT116 MTAP−/− cell proliferation inhibitory activity IC50:
Procedure: (§1) The specific operation procedures were as follows. Tumor cells were treated with test compounds for 5 days, and the effect of the test compounds on the proliferation of tumor cells was evaluated. HCT116-MTAP^−/− and wild-type control HCT116-WT (colorectal cancer cells) cells were seeded in a 384-well plate at a density of 600 cells/well, and at the same time, different concentrations of the test compounds (starting from 20 μM, 10 concentration gradients) were added. The cells were incubated at 37° C., 5% CO2, and saturated humidity for 5 days.
(§2) Cell proliferation was detected using an ATP-based Cell Proliferation Assay Kit (Cell Titer Glo, Promega Corporation). Cells were equilibrated at room temperature for 30 minutes and then treated with Cell Titer Glo reagent. The plate was then covered with aluminum foil and shaken for 15 minutes to allow mixing well and lysis. Chemiluminescence detection was performed using a multifunctional microplate reader (Envision 2105, PerkinElmer). A blank well (blank, cell-free) and a DMSO control well were set.
(§3) The inhibition rate (IR) of the test compounds was calculated using the following formula: […]
(§4) GraphPad Prism was used for graphing, data analysis and IC50 calculations.

HCT116-WT cells = test: Cell proliferation inhibition, HCT116 wild-type (Cell Titer Glo, 5 days); assay type: cell-based; conditions: Homo sapiens, HCT-116, 120 h, 5 days treatment, maximum inhibition rate <50% expressed as IC50 > maximum initial concentration, read-out: HCT116 MTAP+/+ cell proliferation inhibitory activity IC50:
Procedure: as §1, §2, §3, §4

T1 sequence (P31153 whole entry): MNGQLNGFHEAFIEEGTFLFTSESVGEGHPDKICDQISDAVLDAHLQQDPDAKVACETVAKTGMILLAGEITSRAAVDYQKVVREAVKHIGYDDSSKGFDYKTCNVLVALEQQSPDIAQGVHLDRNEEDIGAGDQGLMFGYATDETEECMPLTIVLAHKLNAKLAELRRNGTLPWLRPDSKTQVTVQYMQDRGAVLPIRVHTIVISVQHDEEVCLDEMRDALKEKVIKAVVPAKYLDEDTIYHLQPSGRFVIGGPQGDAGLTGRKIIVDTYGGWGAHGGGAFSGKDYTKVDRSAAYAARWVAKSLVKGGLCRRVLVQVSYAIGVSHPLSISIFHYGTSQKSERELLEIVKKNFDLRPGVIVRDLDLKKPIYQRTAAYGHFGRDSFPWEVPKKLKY

| Compound | IC50 (MAT2A) | IC50 (HCT116-MTAP−/− cells) | IC50 (HCT116-WT cells) |
| --- | --- | --- | --- |
| CN1Cc2cc(Cl)cc3c2c1nc(=O)n3-c1cccnc1Cl (single isomer, unassigned) [Compound A16-P2, 7-chloro-4-methyl-1-(2-chloropyridin-3-yl)-4,5-dihydropyrrolo[2,3,4-de]quinazolin-2(1H)-one] | ≤ 50 nM |  |  |
| Cc1ncccc1-n1c(=O)nc2c3c(cc(Cl)cc31)CN2 [Compound A1, 7-chloro-1-(2-methylpyridin-3-yl)-4,5-dihydropyrrolo[2,3,4-de]quinazolin-2(1H)-one] | ≤ 50 nM | 199 nM | > 20000 nM |
| Cc1ncccc1-n1c(=O)nc2c3c(cc(Cl)cc31)CN2C [Compound A2, 7-chloro-4-methyl-1-(2-methylpyridin-3-yl)-4,5-dihydropyrrolo[2,3,4-de]quinazolin-2(1H)-one] | ≤ 50 nM | 45 nM | > 20000 nM |
| Cc1ncccc1-n1c(=O)nc2c3c(cc(Cl)cc31)CN2c1ccccc1 [Compound A3, 7-chloro-4-phenyl-1-(2-methylpyridin-3-yl)-4,5-dihydropyrrolo[2,3,4-de]quinazolin-2(1H)-one] | ≤ 50 nM |  |  |
| CN1Cc2cc(Cl)cc3c2c1nc(=O)n3-c1cccnc1Cl [Compound A16, 7-chloro-4-methyl-1-(2-chloropyridin-3-yl)-4,5-dihydropyrrolo[2,3,4-de]quinazolin-2(1H)-one] | ≤ 50 nM | 112 nM | > 20000 nM |
| Cc1ncccc1-n1c(=O)nc2c3c(cc(C(F)(F)F)nc31)CN2C [Compound A19] | > 100 nM |  |  |
| CN1Cc2cc(C(F)(F)F)nc3c2c1nc(=O)n3-c1cccnc1Cl [Compound A29] | > 100 nM |  |  |
| Cc1ncccc1-n1c(=O)nc2c3c(cc(Cl)cc31)CN2c1ccc2nn(C)cc2c1 [Compound A38, 7-chloro-4-(2-methyl-2H-indazol-5-yl)-1-(2-methylpyridin-3-yl)-4,5-dihydropyrrolo[2,3,4-de]quinazolin-2(1H)-one] | ≤ 50 nM | 20 nM | > 20000 nM |
| Cc1ncccc1-n1c(=O)nc2c3c(cc(Cl)cc31)CN2c1ccc(Cl)cc1 [Compound A39, 7-chloro-4-(4-chlorophenyl)-1-(2-methylpyridin-3-yl)-4,5-dihydropyrrolo[2,3,4-de]quinazolin-2(1H)-one] | ≤ 50 nM | 308 nM | 1350 nM |
| COc1ncccc1-n1c(=O)nc2c3c(cc(Cl)cc31)CN2C [Compound A40, 7-chloro-1-(2-methoxypyridin-3-yl)-4-methyl-4,5-dihydropyrrolo[2,3,4-de]quinazolin-2(1H)-one] | 50 to 100 nM |  |  |

Next, values leading:

| IC50 (MAT2A) | IC50 (HCT116-MTAP−/− cells) | IC50 (HCT116-WT cells) | Compound |
| --- | --- | --- | --- |
| > 100 nM |  |  | Cc1ncccc1-n1c(=O)nc2c3c(cc(Cl)cc31)CCCN2 [Compound B1, 9-chloro-1-(2-methylpyridin-3-yl)-4,5,6,7-tetrahydroazepino[2,3,4-de]quinazolin-2(1H)-one] |
| > 100 nM |  |  | Cc1ncccc1-n1c(=O)nc2c3c(cc(Cl)cc31)OCCN2 [Compound B2, 9-chloro-1-(2-methylpyridin-3-yl)-5,6-dihydro-1H-[1,4]oxazepino[5,6,7-de]quinazolin-2(4H)-one] |
| 50 to 100 nM |  |  | Cc1ncccc1-n1c(=O)nc2c3c(cc(Cl)cc31)NCC(O)N2C (stereo not drawn) [Compound B3, 9-chloro-5-hydroxy-4-methyl-1-(2-methylpyridin-3-yl)-4,5,6,7-tetrahydro-[1,4]diazepino[5,6,7-de]quinazolin-2(1H)-one] |
| ≤ 50 nM |  |  | Cc1ncccc1-n1c(=O)nc2c3c(cc(C(F)(F)F)nc31)CCN2C [Compound C1, 4-methyl-1-(2-methylpyridin-3-yl)-8-(trifluoromethyl)-5,6-dihydro-1H-pyrimidino[4,5,6-ij][2,7]naphthyridin-2(4H)-one] |
